13 compounds from ChEMBL document CHEMBL4699449, “Adenosine A Receptor Antagonists for Cancer Immunotherapy” (J Med Chem, 2020) can be followed below.

A word on the Tmax: it is the time at which the peak concentration occurs. The Cmax is the highest concentration seen after dosing. As usually defined, the half-life is the time in which the quantity being followed falls by half. A word on the IC50: it is the concentration needed to halve the response being measured. Broadly, the Kb is the equilibrium dissociation constant of an antagonist, usually derived from a functional assay. A low value points to a more potent antagonist. Broadly, the Ki is a dissociation constant, usually derived from enzyme kinetics or from competition with a known ligand. Low values mean tighter binding, high ones weaker binding.

A short description of data set [1]: Tmax in human at 75 to 200 mg administered as multiple ascending dose. The following applies: in vivo, dose 75-200 mg. It is filed as ADME.
Data set [2] is described as follows: Tmax in human at 75 to 200 mg administered as single ascending dose. It is filed as ADME. The following applies: in vivo, dose 75-200 mg.
Data set [3] in a line: Cmax in human at 75 to 200 mg. It is filed as ADME. Also noted: dose 75-200.
Data set [4] in a line: Half life in human at 75 to 200 mg. Format: ADME. The note with it: dose 75-200 mg.
For data set [5], the species on record is Homo sapiens. Kind of data set: Selectivity ratio of IC50 for human adenosine A1 receptor expressed in CHO cells to IC50 for human adenosine 2A receptor expressed in HEK293 cells. It is filed as cell-based.
Data set [6] can be described thus: Cmax in mouse at 1 mg/kg, iv measured up to 24 hrs by LC-MS/MS analysis. It is filed as ADME, organism-based. Also noted: route intravenous, dose 1 mg/kg, time <=24. The following applies: in vivo.
Data set [7] is filed under the species Homo sapiens. Kind of data set: Selectivity ratio of IC50 for human adenosine 2B receptor expressed in HEK293 cells to IC50 for human adenosine 2A receptor expressed in HEK293 cells. Format: cell-based.
The target of data set [8] is T1, Adenosine receptor A2a (Homo sapiens, UniProt P29274). Kind of data set: Antagonist activity at human adenosine 2A receptor expressed in HEK293 cells assessed as reduction in NECA-induced cAMP level incubated for 15 mins by HTRF assay. Format: functional, cell-based. A general note: Cyclic AMP is a second messenger, typically raised through Gs and lowered through Gi signalling.

The nature of data set [9]: Half life in mouse at 2 mg/kg, iv or 10 mg/kg, po measured up to 24 hrs by LC-MS/MS analysis. Format: ADME, organism-based. The note with it: in vivo.
The species entered for data set [10] is Homo sapiens. Kind of data set: Selectivity ratio of IC50 for human adenosine A3 receptor expressed in CHO cells to IC50 for human adenosine 2A receptor expressed in HEK293 cells. Format: cell-based.
Data set [11] deals with T1, Adenosine receptor A2a. Kind of data set: Antagonist activity at adenosine 2A receptor in human PBMC assessed as reversal of NECA/CD3/CD28-stimulated IL-2 release incubated for 24 hrs.
Data set [12] concerns the target T1, Adenosine receptor A2a. Kind of data set: Antagonist activity at adenosine 2A receptor in human blood assessed as reversal of NECA/LPS-stimulated TNF-alpha release incubated for 5 hrs. It is filed as tissue-based.
The target in data set [13] is T2, Adenosine receptor A2b (Homo sapiens) (UniProt P29275).
T2 sequence (whole entry): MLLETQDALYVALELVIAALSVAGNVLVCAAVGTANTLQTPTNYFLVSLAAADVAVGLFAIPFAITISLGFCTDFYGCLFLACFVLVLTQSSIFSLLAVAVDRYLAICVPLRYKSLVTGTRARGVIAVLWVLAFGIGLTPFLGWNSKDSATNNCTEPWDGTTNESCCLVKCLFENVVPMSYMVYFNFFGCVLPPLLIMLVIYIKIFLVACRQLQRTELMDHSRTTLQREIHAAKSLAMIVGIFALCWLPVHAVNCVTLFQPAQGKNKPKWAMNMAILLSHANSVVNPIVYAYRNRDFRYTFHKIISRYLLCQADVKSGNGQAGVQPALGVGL
Kind of data set: Antagonist activity at human adenosine 2B receptor expressed in CHO-K1 cells preincubated for 1 hr followed by NECA stimulation and measured after 30 mins by Eu-cAMP tracer based TR-FRET assay. Format: functional, cell-based. The following applies: filed as antagonist, time 1.5 hrs. In general terms: TR-FRET usually uses a lanthanide donor and a delayed reading to cut background.

The target of data set [14] is T1, Adenosine receptor A2a. Kind of data set: Antagonist activity at human adenosine 2A receptor expressed in T-REx-CHO cells preincubated for 1 hr followed by NECA stimulation and measured after 30 mins by Eu-cAMP tracer based TR-FRET assay. Format: functional, cell-based. The following applies: filed as antagonist, time 1.5 hrs.
In data set [15] the target is T1, Adenosine receptor A2a. Kind of data set: Antagonist activity at adenosine 2A receptor in human whole blood assessed as reduction in phosphorylated CREB level preincubated for 20 mins followed by adenosine receptor agonist NECA addition and measured after 30 mins by flow cytometric analysis. Format: functional, tissue-based.
The species named for data set [16] is Homo sapiens. Kind of data set: Selectivity ratio of Ki for human adenosine A3 receptor to Ki for human Adenosine 2A receptor.
Data set [17] is filed under the species Homo sapiens. Kind of data set: Selectivity ratio of Ki for human adenosine A1 receptor to Ki for human Adenosine 2A receptor.
Data set [18] concerns the target T3, Adenosine receptor A2b (Homo sapiens, UniProt P29275).
T3 sequence (P29275 whole entry): T2 sequence (whole entry)
Kind of data set: Inhibition of FRET-labelled CA200645 binding to human adenosine 2B receptor expressed in CHO cells incubated for 2 hr by TR-FRET assay. Format: cell-based.

Data set [19] deals with T1, Adenosine receptor A2a. Kind of data set: Inhibition of FRET-labelled CA200645 binding to human adenosine 2A receptor expressed in CHO cells incubated for 2 hr by TR-FRET assay. It is filed as cell-based.
Data set [20] concerns the target T4, Adenosine receptor A2a (Mus musculus, UniProt Q60613). Kind of data set: Antagonist activity at adenosine 2A receptor in BALB/c mouse T cells assessed as reduction in CGS-21680-induced suppression of IL-2 secretion incubated for 24 hrs by ELISA. Format: cell-based, T cell. On the technique in general: An ELISA detects its analyte on a solid surface through an enzyme-linked reagent.

Data set [21] has as its target T4, Adenosine receptor A2a. Kind of data set: Antagonist activity at adenosine 2A receptor in BALB/c mouse T cells assessed as reduction in CGS-21680-induced suppression of IFN-gamma secretion incubated for 24 hrs by ELISA. Format: cell-based, T cell.
Data set [22] addresses T5, Adenosine receptor A3 (Homo sapiens, UniProt P0DMS8).
T5 sequence (P0DMS8 whole entry): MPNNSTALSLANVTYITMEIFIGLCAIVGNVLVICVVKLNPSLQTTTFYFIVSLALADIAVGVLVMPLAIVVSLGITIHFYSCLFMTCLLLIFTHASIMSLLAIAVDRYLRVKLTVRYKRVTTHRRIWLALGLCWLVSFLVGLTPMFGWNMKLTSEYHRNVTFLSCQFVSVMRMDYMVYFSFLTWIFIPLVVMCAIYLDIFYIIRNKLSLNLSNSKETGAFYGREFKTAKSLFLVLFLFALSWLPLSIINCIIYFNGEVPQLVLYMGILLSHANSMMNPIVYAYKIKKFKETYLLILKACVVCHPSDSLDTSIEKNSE
Kind of data set: Antagonist activity at human adenosine A3 receptor expressed in HeLa cells by radioligand competition binding assay. Format: cell-based.

Data set [23] has as its target T3, Adenosine receptor A2b. Kind of data set: Antagonist activity at human adenosine A2b receptor expressed in HEK293 cells by radioligand competition binding assay. Format: cell-based.
Data set [24] addresses T6, Adenosine receptor A1 (Homo sapiens, UniProt P30542).
T6 sequence (P30542 whole entry): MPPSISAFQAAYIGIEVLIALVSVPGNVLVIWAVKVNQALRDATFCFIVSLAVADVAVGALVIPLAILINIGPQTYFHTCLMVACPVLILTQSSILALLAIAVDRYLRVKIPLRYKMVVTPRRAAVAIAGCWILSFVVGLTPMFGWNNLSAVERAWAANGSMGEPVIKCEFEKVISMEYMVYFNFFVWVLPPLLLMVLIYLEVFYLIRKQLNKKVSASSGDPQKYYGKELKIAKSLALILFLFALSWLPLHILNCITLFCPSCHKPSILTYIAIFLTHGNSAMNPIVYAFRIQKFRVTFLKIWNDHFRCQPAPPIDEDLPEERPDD
Kind of data set: Antagonist activity at human adenosine A1 receptor expressed in CHO cells by radioligand competition binding assay. It is filed as cell-based.

Bounds are passed on as bounds.

T1 sequence (P29274 whole entry): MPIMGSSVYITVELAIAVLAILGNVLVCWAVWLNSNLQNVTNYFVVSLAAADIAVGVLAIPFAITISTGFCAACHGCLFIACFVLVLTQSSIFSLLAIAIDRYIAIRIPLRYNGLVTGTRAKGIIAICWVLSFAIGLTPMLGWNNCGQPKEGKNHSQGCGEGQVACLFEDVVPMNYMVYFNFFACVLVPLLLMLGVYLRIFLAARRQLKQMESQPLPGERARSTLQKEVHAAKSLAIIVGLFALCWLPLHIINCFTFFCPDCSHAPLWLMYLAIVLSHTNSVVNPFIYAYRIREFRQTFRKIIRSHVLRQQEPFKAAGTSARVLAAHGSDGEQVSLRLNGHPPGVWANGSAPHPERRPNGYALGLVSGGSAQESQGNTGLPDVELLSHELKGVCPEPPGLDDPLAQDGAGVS
T4 sequence (Q60613 whole entry): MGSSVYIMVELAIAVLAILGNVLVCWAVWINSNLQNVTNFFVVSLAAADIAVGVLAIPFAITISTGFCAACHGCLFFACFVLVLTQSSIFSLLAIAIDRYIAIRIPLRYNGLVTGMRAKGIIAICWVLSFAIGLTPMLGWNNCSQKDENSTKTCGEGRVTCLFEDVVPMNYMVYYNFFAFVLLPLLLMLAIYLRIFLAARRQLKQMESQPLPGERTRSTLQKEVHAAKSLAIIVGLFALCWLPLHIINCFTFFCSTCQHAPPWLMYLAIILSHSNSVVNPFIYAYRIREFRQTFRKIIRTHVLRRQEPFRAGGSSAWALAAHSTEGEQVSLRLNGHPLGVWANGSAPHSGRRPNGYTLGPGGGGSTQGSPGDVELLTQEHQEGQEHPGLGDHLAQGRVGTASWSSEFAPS

For `Cc1c(C#N)cccc1-c1cc(-c2cn(Cc3cccc(C(C)(C)O)n3)nn2)nc(N)n1` [ETRUMADENANT], the time of peak concentration (Tmax) in [1] is 1.5 h; in data set [2] it was 2 h. Moreover, the Cmax in [3] came out at 1170 ng/mL. Further, in data set [4], the half-life is 20 h.

`COc1ccc(N2CCOCC2)c2nc(NC(=O)c3cccc(N4CCOCC4)c3)[nH]c12`: the Ratio IC50 in data set [5], in data set [7] and in data set [10] was 1000 throughout. In data set [6], this compound gave a maximum concentration (Cmax) of 2100 ng/mL. For the same compound, in data set [8], the IC50 is less than 10 nM. Besides, the half-life in [9] was 1.15 h.

In data set [6], `COc1ccc(-c2cnn(C)c2)c2nc(NC(=O)N3CCC(C)(O)CC3)[nH]c12` registered a Cmax of 1320 ng/mL. The same compound had a half-life in data set [9] of 0.867 h.

`Cc1cccnc1CNC(=O)c1c(N)nc(-c2ccco2)nc1OC[C@H](C)O`: the IC50 in data set [11] is 77 nM; in data set [12] it was greater than 200 nM.

For `COc1cccc2c(-c3cn(Cc4cccc(C(C)(O)C(F)(F)F)[n+]4[O-])nn3)nc(N)nc12` (stereo unspecified), the Kb in data set [13] and in data set [14] was less than 100 nM in each case.

Regarding `COc1nc(-c2ncco2)nc(N)c1C(=O)NCc1c(Cl)cccc1Cl`, the figures for the half-maximal inhibitory concentration (IC50) in data set [15] and in [12] were 17 nM and greater than 200 nM, respectively. Besides, the figures for the Ratio Ki in [16] and in data set [17] were 2490 and 230, respectively. Also, the figures for the inhibitory constant (Ki) in data set [18] and in [19] were 5.4 nM and 0.078 nM, respectively.

Turning to `COc1cccc2c(-c3cn(Cc4cccc(C(C)(C)O)n4)nn3)nc(N)nc12`, the Kb in [13] and in data set [14] was less than 100 nM each time.

On to `COc1ccc(-c2cnn(C)c2)c2nc(NC(=O)c3ccc(Cn4ccnc4)cc3)[nH]c12`, for which the IC50 in data set [20] and in data set [21] was 40 nM each time.

`COCCn1cc(C(=O)Nc2nc3c(OC)ccc(N4CCOCC4)c3s2)cn1`: the half-life in [9] was 0.331 h.

Turning to `COc1ncc(N2CCOCC2)c2sc(NC(=O)N3CCC(C)(O)CC3)nc12`, the concentration in data set [6] peaked (Cmax) at 449 ng/mL. The same compound had a half-life in [9] of 0.172 h.

Take `COc1ccc(N2CCOCC2)c2sc(NC(=O)N3CCC(C)(O)CC3)nc12` [TOZADENANT]: the peak level in [6] (Cmax) was 337 ng/mL. This compound had a half-life in [9] of 0.184 h.

In the case of `Nc1nc(-n2cccn2)nc(-n2cccn2)c1Br` [PBF-509], the inhibitory constant (Ki) in data set [22] is 5000 nM; in [23], 1000 nM; in data set [24] it was 2500 nM.

With `Cc1cccnc1CNC(=O)c1cnc(-c2ccco2)nc1N`, the half-maximal inhibitory concentration (IC50) in data set [11] is 77 nM; in data set [12] it was greater than 200 nM.
